Here are results for five compounds from patent publication US10471073B2, “Methods of reducing mammographic breast density and/or breast cancer risk” (Havah Therapeutics Pty Ltd., priority 2016, dated 2019).

Bounds are passed on as bounds.

The subject of data set [1] is prostate specific antigen (PSA). Description: IHC of high MBD breast tissue explants with columnar cell change: PSA. Particulars: for PSA, percentage of cell staining: 24 hours, E 5 nM, T 10 nM, G 100 nM, A 25 ng/L [sic]; for effect on PSA levels: tissue samples of both patients. The data set is classed as cell-based, human. As for the experimental part: (§1) The samples are transported on ice for Prostate-specific antigen (PSA) determination. […] PSA is detectable in greater than 90% of the nipple fluid aspirations of normal women. […] This area was removed and transported on ice to the laboratory for explant culture. […] A representative piece of each tissue sample was immediately fixed in 4% formalin in phosphate-buffered saline (PBS) overnight at 4° C., followed by dehydration using an automatic tissue processor (Sakura Tissue-Tek VIP, USA) and paraffin wax embedding. A haematoxylin and eosin (H&E) stained section was used to assess tissue pathology. Additional consecutive sections were subjected to antigen retrieval to assess androgen receptor levels by immunohistochemistry (IHC). The remaining fresh tissue was cut into small (˜3×3×1 mm) pieces, and placed as triplicates on 1 cm^3 gelatin sponges (Spongostan; Johnson & Johnson, Skipton, UK) that were pre-soaked and then half submerged in treatment media containing 10% by volume dextran-coated charcoal stripped fetal calf serum (DCC-FCS) (SAFC biosciences, Kansas, USA) in 24-well tissue culture plates (BD Biosciences, NJ, USA). The tissues samples of both patients were cultured for 24 hours in a vehicle of 0.1% by volume of ethanol and subjected to the treatments set forth in Table 17.
(§2) Following 24 hours culturing in a 5% by volume CO2 enriched atmosphere at 37° C., the treated tissues samples were processed for IHC analyses as indicated below. Established IHC protocols were used to determine hormone receptor androgen receptor status in the 4 tissue samples prior to culture. Following microwave antigen retrieval in […] (pH6.5) tissue sections were incubated at 4° C. overnight with primary antibody for androgen receptor, estrogen receptor and PSA. Negative controls were generated by replacement of the primary antibodies with PBS. Tissues were dehydrated in ethanol and xylene and mounted with DPX (VWR International Ltd, England, UK). Following staining, digital images of stained sections were generated with a NanoZoomer scanner (Hamamatsu, Japan) to enable analyses of % positivity in untreated tissues, using Visual Image Analysis software (Video Pro, South Australia). A pathologist undertook histological evaluation with 25 years experience in breast pathology.

Another data set has as its system estrogen receptor (ER). Description: IHC of high MBD breast tissue explants with columnar cell change: estrogen receptor. It is filed as cell-based, human. The settings on record: 24 hours, E 5 nM, T 10 nM, G 100 nM, A 25 ng/L [sic]. As to the method: as §1, §2
The next data set relates to androgen receptor (AR). Kind of data set: IHC of high MBD breast tissue explants with columnar cell change: androgen receptor. The data set is classed as cell-based, human. The settings on record: for AR, percentage of cell staining: 24 hours, E 5 nM, T 10 nM, G 100 nM, A 25 ng/L [sic]; for effect on AR levels: tissue samples of both patients. As to the method:
as §1, §2

For data set [2] the following is noted: cited from earlier work.
A further data set relates to pre-menopausal person. Particulars: prior art; cited from earlier work.
The next data set has as its system person with macromastia. Description: Macromastia: breast volume by water displacement. It is filed as in vivo, human. Particulars: tamoxifen and oral contraceptive therapy before the pellet.

Method for person with macromastia: The treatment consisted of testosterone 100 mg and anastrazole 3 mg compounded into a 4.5 mm pellet. The pellet was inserted into the subcutaneous fat of the lower abdominal wall.
Prior to treatment (Pre-treatment) the right and left breasts were separately placed in a calibrated bucket and the volume of displacement for each breast was measured. This was accomplished by submerging each breast until the breast was fully submerged but the water was not touching the chest wall. After one month of treatment the volume measurements were repeated using the same water displacement methodology. Fluid displacements were measured in mls.

Consider `CC(C)(C#N)c1cc(Cn2cncn2)cc(C(C)(C)C#N)c1` [Anastrozole, 2,2′-[5-(1H-1,2,4-triazol-1-ylmethyl)-1,3-phenylene]bis(2-methylpropanenitrile)], for which the “PSA, percentage of cell staining” value in data set [1] (Patient 1 explant, vehicle 20%) is 35%; in data set [1] (Patient 2 explant, vehicle […]%), 25%. For the same compound, the “effect on PSA levels” value in data set [1] is “mild stimulatory effect”.

`C[C@]12CC[C@@H]3c4ccc(O)cc4CC[C@H]3[C@@H]1CC[C@@H]2O` [Estradiol, estradiol]: the “ER, percentage of cell staining” value in the data set with estrogen receptor (ER) (Patient 1 explant, vehicle 90%) was more than 95%; with estrogen receptor (ER) (Patient 2 explant, vehicle 75%), more than 95%. Besides, the “PSA, percentage of cell staining” value in data set [1] (Patient 1 explant, vehicle 20%) is listed as 5%; in data set [1] (Patient 2 explant, vehicle […]%), less than 5%. Besides, the “AR, percentage of cell staining” value in the data set on androgen receptor (AR) (Patient 1 explant, vehicle […]%) is listed as 5%; in the data set on androgen receptor (AR) (Patient 2 explant, vehicle 10%), less than 5%.

Turning to `C[C@](O)(COc1ccc(C#N)cc1)C(=O)Nc1ccc(C#N)c(C(F)(F)F)c1` [GTx-024, (2S)-3-(4-cyanophenoxy)-N-[4-cyano-3-(trifluoromethyl)phenyl]-2-hydroxy-2-methylpropanamide], the “ER, percentage of cell staining” value in the data set on estrogen receptor (ER) (Patient 1 explant, vehicle 90%) was 45%; with estrogen receptor (ER) (Patient 2 explant, vehicle 75%), 25%. In addition, the “PSA, percentage of cell staining” value in data set [1] (Patient 1 explant, vehicle 20%) stood at 50%; in data set [1] (Patient 2 explant, vehicle […]%), 55%. For the same compound, in data set [1], the “effect on PSA levels” value is “increased”. For the same compound, the “AR, percentage of cell staining” value is on record as 45% with androgen receptor (AR) (Patient 1 explant, vehicle […]%) and 55% in the data set with androgen receptor (AR) (Patient 2 explant, vehicle 10%). The “effect on AR levels” value in the data set on androgen receptor (AR) is listed as “increased”.

For `C[C@]12CC[C@H]3[C@@H](CCC4=CC(=O)CC[C@@]43C)[C@@H]1CC[C@@H]2O` [Testosterone, testosterone], the “ER, percentage of cell staining” value with estrogen receptor (ER) (Patient 1 explant, vehicle 90%) is on record as 50%; in the data set with estrogen receptor (ER) (Patient 2 explant, vehicle 75%), 45%. Also, the “PSA, percentage of cell staining” value in data set [1] (Patient 1 explant, vehicle 20%) came out at 65%; in data set [1] (Patient 2 explant, vehicle […]%), 45%. Further, in data set [1], the “effect on PSA levels” value is listed as “increased”. For the same compound, the “AR, percentage of cell staining” value in the data set with androgen receptor (AR) (Patient 1 explant, vehicle […]%) was 35%; with androgen receptor (AR) (Patient 2 explant, vehicle 10%) it was 25%. For the same compound, in the data set with androgen receptor (AR), the “effect on AR levels” value is on record as “increased”. Moreover, the “fraction broken down in the liver as it is absorbed from the gut” value in data set [2] (oral delivery) is 80-90%. Besides, in data set [2] (oral), the “fraction broken down in the intestines by aromatase and other metabolic pathways” value is on record as “approximately 85%”.

For `CC/C(=C(\c1ccccc1)c1ccc(OCCN(C)C)cc1)c1ccccc1` [tamoxifen], the mammographic breast density entry with pre-menopausal person is reported as “reduce”. Moreover, in the data set with person with macromastia, the “breast growth in macromastia” value is recorded as “failed to cease the breast growth”.
